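Protocol summary: plate cells (96-well), add compound at 5 concentrations, incubate 48 h, interpolate endpoints linearly. GI50: concentration for 50% inhibition of growth. Definition used: TGI = concentration required for complete inhibition of growth.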
Assays:
Assay in all cases: NCI tumour cell line growth inhibition, 48 h
[1] = tested on: OVCAR-3 ovarian
[2] = tested on: OVCAR-8 ovarian
[3] = tested on: MDA-MB-231 breast
[4] = tested on: SNB-19 CNS
[5] = tested on: HS 578T breast
[6] = tested on: NCI-H522 lung
[7] = tested on: IGROV1 ovarian
[8] = tested on: HT29 colon

SMILES	TGI [1] [µM]	TGI [2] [µM]	TGI [3] [µM]	TGI [4] [µM]	TGI [5] [µM]	TGI [6] [µM]	TGI [7] [µM]	TGI [8] [µM]	GI50 [1] [µM]
Cc1c(C)c(S(=O)(=O)N(CCCN)OCCCN)c(C)c2c1OC(C)(C)C2	> 100	> 100	33.3	63.5	40.3	30.6	45.8	> 100	–
O=C(O)c1ccccc1/C=N/NC1=NCCCCN1	> 100	> 100	> 100	> 100	> 100	> 100	> 100	> 100	–
Cc1ccc(/C=C/C(=O)c2cc(CN(C)C)c(O)c(CN(C)C)c2)cc1	69.5	78.9	27.2	–	86.7	31.7	> 100	33	–
Cc1cc(OCC(=O)N/N=C/C(Br)=C/c2ccccc2)nc(SCC(=O)N/N=C/C(Br)=C/c2ccccc2)n1	> 100	–	–	> 100	> 100	> 100	> 100	> 100	–
C/C=C/C(=O)N1C(=O)OC[C@@H]1c1ccccc1	33.7	38.5	39.8	41.4	76.2	39.1	37.1	33.7	–
Cc1cc(NS(=O)(=O)c2ccc(Nc3c4ccccc4nc4ccc(C(=O)Nc5ccc(S(N)(=O)=O)cc5)cc34)cc2)no1	> 100	> 100	> 100	> 100	> 100	> 100	> 100	> 100	–
COc1cc(O)c2c(=O)cc(C3(O)C=CC(=O)C=C3)oc2c1	–	0.586	0.789	–	8.38	0.113	0.0328	–	–
Cn1c2c(c3ccccc31)CC(=S)N1CCCC(CC2O)C1 (stereo not given)	–	> 100	> 100	> 100	> 100	> 100	–	> 100	–
NC(=O)c1[nH]cnc1/N=N/SCC(N)C(=O)O (stereo not given)	> 100	> 100	> 54.9	> 100	> 100	> 100	> 100	> 100	–
O=c1[nH]n(Cc2ccccn2)c2ccc([N+](=O)[O-])cc12	> 100	> 100	> 100	> 100	> 100	> 100	> 100	> 100	–
COc1cc2c(cc1OC)C(N)CC2=O (stereo not given)	> 100	> 100	> 100	> 100	> 100	> 100	> 100	> 100	–
Cc1ccc(/C=C/C(=N/NC(=O)N/N=C(/C=C/c2ccc(C)cc2)C(C)(C)CN2CCCCC2)C(C)(C)CN2CCCCC2)cc1	3.07	2.88	3.22	4.4	3.29	3.04	3.71	2.16	–
CC1OC(OC2C(O)COC(OC3C(C)OC(OC4C(OC(=O)[C@]56CCC(C)(C)C[C@@H]5C5=CCC7[C@@]8(C)C[C@H](O)[C@H](OC9OC(CO)C(O)C(OC%10OC(CO)C(O)C(O)C%10O)C9O)[C@@](C)(CO)[C@@H]8CC[C@@]7(C)[C@]5(C)CC6)OCC(O)C4O)C(O)C3O)C2O)C(O)C(O)C1O (stereo not given in full)	29.4	32.8	31.2	30.4	40.9	31.4	–	31.5	–
NC(=Nc1ccc(O)cc1)S(=O)O	> 100	> 100	> 100	> 100	> 100	> 100	> 100	> 100	–
CCCCCCCN1C(=O)C(O)(c2ccc(C3(O)C(=O)N(CCCCCCC)c4ccccc43)s2)c2ccccc21 (stereo not given)	–	4.41	4.12	8.7	5.31	–	4.28	3.28	–
C=CCNC1=C2C[C@@H](C)C[C@@H](OC)[C@H](OC(=O)CN)[C@H](C)/C=C(\C)[C@@H](OC(N)=O)[C@H](OC)/C=C\C=C(/C)C(=O)NC(=CC1=O)C2=O	7.41	18.3	15.6	25.5	80.1	18.8	15.5	17.6	–
C=CCOC(=O)[C@@H]1C[C@@H](OC(C)(C)C)CN1C(=O)[C@@H]1[C@H]2OC(C)(C)O[C@H]2CN1C(=O)OCC1c2ccccc2-c2ccccc21	35.2	15.3	33.1	33	42.5	1.39	37.6	33.1	–
Cc1c2c(n(CCN(C)C)c1C)NN=C(C#N)S2(=O)=O	> 100	> 100	> 100	> 100	> 100	–	> 100	> 100	–
O=C1NC(N2CCCC(CO)C2)=N/C1=C\c1ccc(Cl)cc1 (stereo not given)	> 100	> 100	> 100	> 100	> 100	> 100	> 100	> 100	–
C=CC[C@@]1(C)CCCCCCCCC[C@@](C)(CC=C)C1=O	38.1	57.9	80.9	45	42.9	59.4	> 100	38.2	–
COc1ccc2c(c1)CCC1=CC3(CCC12C)SCCS3 (stereo not given)	7.71	> 10	> 10	> 10	–	> 10	> 10	> 10	–
O=C(O)CCCOc1cc(-c2ccccc2F)nc2cc3c(cc12)OCO3	6.74	> 100	> 100	–	–	–	15.8	> 100	2.35
NC(=O)NC(=O)c1cccc(NC(=O)CBr)c1	0.024	–	0.951	13.1	< 0.0505	< 0.01	0.368	< 0.0291	–
N#CC(Cc1ccccc1Br)N(CCC1=CCCCC1)C(c1ccccc1)c1ccccc1 (stereo not given)	> 100	> 100	> 100	> 100	> 100	87	> 100	> 100	–
Cc1ccc(S(=O)(=O)N2CCCC2C(=O)O[C@H]2CC[C@H]3CC=C[C@H]32)cc1 (stereo not given in full)	> 100	> 100	> 100	> 100	> 100	–	> 100	> 100	–

SMILES	TGI [1] [µM]	TGI [2] [µM]	TGI [3] [µM]	TGI [4] [µM]	TGI [5] [µM]	TGI [6] [µM]	TGI [7] [µM]	TGI [8] [µM]	GI50 [1] [µM]
CN1CCC23c4c5ccc(O)c4OC2c2[nH]c4ccccc4c2CC3(O)C1C5 (stereo not given)	> 100	> 100	86.5	> 100	70.9	> 100	> 100	> 100	–
NNc1[nH]c(=S)[nH]c1C(N)=O	> 100	> 100	> 100	–	> 100	> 100	> 100	> 100	–
C=CC[C@@H]1C(=O)[C@@]2(O[Si](C(C)C)(C(C)C)C(C)C)CC[C@@H]1C[C@H]2NC(=O)OCC(Cl)(Cl)Cl	> 100	> 100	–	> 100	> 100	0.0356	–	> 100	–
O=C(Nc1ccccc1F)c1cc2ccc(O)cc2oc1=Nc1cccc(C(F)(F)F)c1	> 100	5.27	–	> 100	7.75	18.7	5.54	> 100	–
NC(N)=NCCCC(NC(=O)OCCCCCCn1ccc(N)nc1=O)C(=O)O (stereo not given)	> 100	–	> 100	> 100	> 100	–	> 100	> 100	–
CCOC(=O)c1cnc(-n2[nH]c3c(c2=O)CCCC3)[nH]c1=O	–	> 100	> 100	> 100	> 100	> 100	> 100	> 100	–
COc1cccc(C2C3=C(COC3=O)Oc3cc4c(cc32)OCO4)c1 (stereo not given)	0.43	20	> 43.3	> 100	> 100	0.0596	> 64.9	1.3	–
COc1cc(/C=C/c2cc(/C=C/c3ccc(O)c(OC)c3)oc(=O)c2)ccc1O	5.68	> 100	> 96.2	> 100	> 85.3	> 23.9	19.9	> 22.6	–
C=CC(C)CCC(C/C=C(\C)CCC=C(C)C)C(=C)CCCC(C)C (stereo not given)	> 100	> 100	> 100	> 100	> 100	> 100	> 100	> 100	–
COc1cc2c(cc1OCc1ccccc1)NC(=S)[C@@H]1CCCN1C2=S	> 100	> 100	> 100	> 100	> 100	> 100	> 100	> 100	–
COc1cc2c(cc1O)[C@@H]1Cc3c(cc(OC)c(OC)c3Oc3cc4c(cc3OC)CCN(C)[C@@H]4Cc3ccc(O)cc3)[C@H](C2)N1C	> 100	> 100	98.2	> 100	> 100	67	> 100	> 100	–
O=[N+]([O-])/C(C(Cl)=C(Cl)Cl)=C(/Sc1ccccc1)N1CCCCC1	> 100	> 100	> 100	> 100	> 100	> 100	> 100	> 100	–
COC(=O)[C@@H]1C[C@@H]2c3ccccc3N(S(=O)(=O)c3ccccc3)[C@@H]2N1C(=O)OC	> 100	> 100	> 100	> 100	> 100	> 100	> 100	> 100	–
COC(=O)c1ccccc1/C=C1\Cc2cc(C)c(C)cc2C1=O	> 100	> 100	–	> 100	> 100	> 100	> 100	> 100	–
O=C(c1cccc(C(=O)c2ccc3c4c(cccc24)C(=O)N(c2ccccc2)C3=O)c1)c1ccc2c3c(cccc13)C(=O)N(c1ccccc1)C2=O	> 100	> 100	> 100	> 100	> 100	> 100	> 100	> 100	–
COc1ccc([C@@]23OC[C@@H]4[C@@H](OC[C@@H]42)c2cc(OC)c(OC)cc23)cc1OC	> 100	–	> 100	> 100	–	> 100	> 100	–	–
O=C(/C=C/c1ccc(O)c(O)c1O)OCCc1ccccc1	46.5	–	47.3	> 100	> 100	54.9	84.5	53.4	–
C=C1CN(Cc2ccccc2)[C@@H]2CCCCC[C@H](C#N)[C@H]12	> 100	> 100	> 100	> 100	–	> 100	> 100	> 100	–
C[C@]12[C@@H]3CC[C@H]1[C@@H](OC(=O)Nc1cc([N+](=O)[O-])cc([N+](=O)[O-])c1)C(=O)N2CC3	–	> 100	> 100	> 100	> 100	> 100	> 100	> 100	–
O=C(c1ccc(Br)cc1)n1c2ccc(Br)cc2c2nc3ccccc3nc21	> 100	> 100	–	> 100	–	> 100	> 100	> 100	–
CN(CCCNC(=O)c1nn(-c2ccc(Cl)cc2Cl)c2c1ccc1ccccc12)CCCNC(=O)c1nn(-c2ccc(Cl)cc2Cl)c2c1ccc1ccccc12	3.14	–	3.23	2.89	3.18	2.83	3.2	3.04	–
CCc1c(Cc2cc(C)cc(C)c2)n2c(nc1=O)SCC2CBr (stereo not given)	–	40.4	> 50	> 50	> 50	> 50	> 50	> 50	–
CC1(C)CC(=O)c2c(nc(SSc3nc4c(c(-c5ccccc5)c3C#N)C(=O)CC(C)(C)C4)c(C#N)c2-c2ccccc2)C1	> 10	> 10	–	> 10	> 10	> 10	> 10	> 10	–
CC#CCCN(CC#N)Cc1ccccc1	–	> 100	> 100	> 100	> 100	> 100	> 100	> 100	–

Reference: PubChem BioAssay (NCI)
